Results on five molecules are retold here after ChEMBL document CHEMBL1150142, “New onoceranoid triterpene constituents from Lansium domesticum” (J Nat Prod, 2002).

Activity calls are given as the source filed them. No cut-off for these calls is given here.

The assay in a line: Inhibition of trypsin.
With `C=C(C)[C@@H]1CC=C(C)[C@H](CC[C@H]2C(=C)CC[C@H]3C(C)(C)C(=O)CC[C@]23C)[C@@]1(C)CCC(=O)OC`, the result was inactive.
In the case of `C=C(C)[C@@H]1CCC(=C)[C@H](CC[C@H]2C(C)=CC[C@@H](C(=C)C)[C@]2(C)CCC(=O)O)[C@@]1(C)CCC(=O)O`, the result was inactive.
Then `C=C1CC[C@H]2C(C)(C)C(=O)CC[C@]2(C)[C@H]1CC[C@H]1C(C)=CC[C@H]2C(C)(C)[C@@H](O)CC[C@]12C`, with “inactive”.
For the molecule `C=C1CC[C@H]2C(C)(C)[C@@H](O)CC[C@]2(C)[C@H]1CC[C@H]1C(C)=CC[C@H]2C(C)(C)C(=O)CC[C@]12C`, the outcome was inactive.
Then `C=C(C)[C@@H]1CC=C(C)[C@H](CC[C@H]2C(=C)CC[C@H]3C(C)(C)C(=O)CC[C@]23C)[C@@]1(C)CCC(=O)O`, with “inactive”.
